Laboratory results published in patent publication US8664219B2, “Aminopyrimidines useful as inhibitors of protein kinases” (Vertex Pharmaceuticals Incorporated, priority 2007, dated 2014).

How the values were obtained:
GSK-3β (AA 1-420) = GSK-3β (AA 1-420) (Homo sapiens (Human), UniProt P49841); assay: GSK-3 inhibition assay (standard coupled enzyme system); format: biochemical; details: 20 μM ATP, 300 μM peptide, 20 nM GSK-3β, 30° C.
Experimental: Compounds of the present invention were screened for their ability to inhibit GSK-3β (AA 1-420) activity using a standard coupled enzyme system (Fox et al., Protein Sci. 1998, 7, 2249). Reactions were carried out in a solution containing 100 mM HEPES (pH 7.5), 10 mM MgCl2, 25 mM NaCl, 300 μM NADH, 1 mM DTT and 1.5% DMSO. Final substrate concentrations in the assay were 20 μM ATP (Sigma Chemicals, St Louis, Mo.) and 300 μM peptide (American Peptide, Sunnyvale, Calif.). Reactions were carried out at 30° C. and 20 nM GSK-3β. Final concentrations of the components of the coupled enzyme system were 2.5 mM phosphoenolpyruvate, 300 μM NADH, 30 μg/ml pyruvate kinase and 10 μg/ml lactate dehydrogenase.
An assay stock buffer solution was prepared containing all of the reagents listed above with the exception of ATP and the test compound of the present invention. The assay stock buffer solution (175 μl) was incubated in a 96 well plate with 5 μl of the test compound of the present invention at final concentrations spanning 0.002 μM to 30 μM at 30° C. for 10 min. Typically, a 12-point titration was conducted by preparing serial dilutions (from 10 mM compound stocks) with DMSO of the test compounds of the present invention in daughter plates. The reaction was initiated by the addition of 20 μl of ATP (final concentration 20 μM). Rates of reaction were obtained using a Molecular Devices Spectramax plate reader (Sunnyvale, Calif.) over 10 min at 30° C. The Ki values were determined from the rate data as a function of inhibitor concentration.

[1] = system: β-catenin dependent TCF/LEF transcriptional activity; assay: β-catenin stabilization protocol (β-lactamase reporter assay in Jurkat cells); format: cell-based; details: Homo sapiens, 460/530 ratio, 50% of the maximum effect, read-out: Beta Catenin IC50
From the text: GSK-3 phosphorylation of β-catenin targets it to the proteosome for degradation. Inhibition of GSK-3 results in accumulation of β-catenin in the cytosol of cells which through interaction with the transcription factor TCF/LEF translocates to the nucleus and drives the transcription of Wnt-dependent genes. The assay is designed to determine the level of β-catenin dependent TCF/LEF transcriptional activity in a quantitative manner through the use of a β-lactamase reporter assay in Jurkat cells dosed with a compound.
Jurkat β-catenin cells are starved overnight in assay media (1% FBS, 1× Penstrep, RPMI) in the flask. The next day Jurkat β-catenin cells are seeded in 96 well flat bottom plates at a density of 50,000 cells/well in assay media in a volume of 100 ul. The compound is added to the well at a final DMSO concentration of 0.75% and incubated at 37° C. o/n. The next day, 20 uL of 6× CCF4 dye is added to the wells and incubated at room temperature for 1-2 hours. Plates are read on the Cytofluor 4000 series multiwell plate reader and the 460/530 ratio is determined.

GSK3α TYR 279 = GSK3α TYR 279 (Homo sapiens (Human), UniProt P49840); assay: GSK-3α p-TYR inhibition assay (western blotting of Jurkat cells); format: cell-based; details: compound incubated o/n, western blot, read-out: GSK3a pTYR 279: IC50
Chain of GSK3α TYR 279 (P49840 whole entry): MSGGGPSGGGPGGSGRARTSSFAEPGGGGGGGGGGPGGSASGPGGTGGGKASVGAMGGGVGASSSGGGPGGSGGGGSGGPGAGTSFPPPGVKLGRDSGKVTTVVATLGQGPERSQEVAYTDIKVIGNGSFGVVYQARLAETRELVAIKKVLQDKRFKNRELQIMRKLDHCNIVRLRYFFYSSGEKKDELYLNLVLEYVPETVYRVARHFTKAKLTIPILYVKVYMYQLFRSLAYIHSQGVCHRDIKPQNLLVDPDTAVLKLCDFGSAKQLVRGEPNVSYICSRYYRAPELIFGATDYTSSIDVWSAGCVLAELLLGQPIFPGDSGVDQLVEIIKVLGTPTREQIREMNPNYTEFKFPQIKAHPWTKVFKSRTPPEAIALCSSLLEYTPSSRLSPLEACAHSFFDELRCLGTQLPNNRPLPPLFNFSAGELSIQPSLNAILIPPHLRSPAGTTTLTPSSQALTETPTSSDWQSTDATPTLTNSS
Experimental: (§1) Compounds are screened for their ability to inhibit the phosphorylation of tyrosine (TYR) residues through the use of western blotting of Jurkat cells dosed with the compounds. The phosphorylation of the specific TYR residues tested are GSK3α TYR 279 and GSK3β TYR 216.
(§2) Jurkat cells are seeded at a density of 2×10^5 cells/well in a 12 well dish in starvation media (RPMI+1% FBS+P/S). Following starvation for 16 hours, the compound is dosed into each well at a final DMSO concentration of 0.3% and cells are incubated o/n at 37° C. 5% CO2. The next day, cells are spun down at 1500 rpm, washed with PBS, and lysed in 100 uL Laemli sample buffer with β-mercaptoethanol.
(§3) 15 microliters (uL) of cell lysates are loaded onto a 10% tris-glycine gel and run at 120 v for 2 hours or until dye front runs off of the gel. The protein is then transferred onto a PVDF membrane at 100 v for 60 min. PBST (PBS containing 0.1% Tween 20, such as 1 ml Tween per 1 L of PBS) is then made up and used for all washes and antibody incubations. The blot is blocked in 5% nonfat milk PBST for one hour.
(§4) The primary antibody (GSK-3α/β pTYR 279/216 at 1:1000 dilution Upstate cat #05-413) is then added in 5%-nonfat milk PBST overnight at 4° C. with gentle rocking. The blot is then washed in PBST for 5 min. This is then repeated 4 times. A secondary anti-mouse-HRP conjugated antibody (1:5000 dilution) is added for 60 min in 5% milk PBST. The blot is then washed in PBST for 5 min. This is also repeated 4 times. 3.0 mL of the developing solution (ECL plus Western Blotting Detection System from Amersham/GE cat # RPN2132) is made and then added. The solution is swirled over the blot for ˜30 sec. The blot is then developed using CL-Xposure clear blue X-ray film. GAPDH expression level is used as a loading control, (GAPDH antibody: santa cruz 25-778) at 1:10000 dilution.
(§5) For determination of GSK-3α and GSK-3β pTYR IC50, the density of the respective bands for each protein at specific compound concentration is compared to a no compound DMSO treated control cell sample present on each exposure.

GSK3β TYR 216 = GSK3β TYR 216 (Homo sapiens (Human), UniProt P49841); assay: GSK3β p-TYR inhibition assay (western blotting of Jurkat cells); format: cell-based; details: compound incubated o/n, western blot, read-out: GSK3b pTYR 216: IC50
Chain of GSK3β TYR 216 (P49841 whole entry): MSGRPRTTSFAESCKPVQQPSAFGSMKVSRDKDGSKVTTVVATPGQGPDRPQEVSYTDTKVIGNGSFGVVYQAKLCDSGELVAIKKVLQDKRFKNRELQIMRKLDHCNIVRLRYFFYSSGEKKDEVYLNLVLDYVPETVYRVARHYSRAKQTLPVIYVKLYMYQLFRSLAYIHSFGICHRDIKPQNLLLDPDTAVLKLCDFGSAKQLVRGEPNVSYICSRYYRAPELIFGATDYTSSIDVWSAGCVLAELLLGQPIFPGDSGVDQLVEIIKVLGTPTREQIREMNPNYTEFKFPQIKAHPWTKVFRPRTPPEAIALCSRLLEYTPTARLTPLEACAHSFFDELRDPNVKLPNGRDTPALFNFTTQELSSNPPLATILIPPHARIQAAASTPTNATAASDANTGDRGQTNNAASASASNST
Experimental: as §1, §2, §3, §4, §5

amyloid-β peptides = details: mice over-expressing APP, treated over a three-week period; cited from earlier work
[2] = system: infarct size in rat brains; details: after transient MCAO in rats; cited from earlier work

Chain of GSK-3β (AA 1-420) (P49841 whole entry, species assumed, the tested form may be a part): as the sequence (P49841 whole entry) above

Compound | Ki (GSK-3β (AA 1-420)) [µM] | IC50 [1] [µM] | IC50 (GSK3α TYR 279) [µM] | IC50 (GSK3β TYR 216) [µM] | decrease in amyloid-β peptide tissue levels (amyloid-β peptides) [%] | infarct size in rat brains [2]
Fc1cnc2[nH]nc(Nc3cc(Cl)nc(C4CCCCC4)n3)c2c1 [Compound I-1] | < 0.025 |  |  |  |  | 
CN1CCN(c2cc(Nc3n[nH]c4ccc(F)cc34)nc(C3CCCCC3)n2)CC1 [Compound I-2] | 0.025 to 0.5 |  |  |  |  | 
Cc1nc(C2CCCCC2)nc(Nc2n[nH]c3ncc(F)cc23)c1C [Compound I-3] | < 0.025 | 3.7 | 0.0007 | 0.013 |  | 
Cc1nc(Nc2n[nH]c3ncc(F)cc23)cc(C2CCC(F)(F)CC2)n1 [Compound I-4] | < 0.025 | 0.21 | 0.001 | 0.02 |  | 
Cc1nc(C2CCOCC2)nc(Nc2n[nH]c3ncc(F)cc23)c1C [Compound I-5] |  | > 10 | 0.03 | 0.8 |  | 
Cc1cc(Nc2n[nH]c3ncc(F)cc23)nc(C2CCCCCC2)n1 [Compound I-8] |  | 0.6 | 0.0003 | 0.01 |  | 
Cc1cc(Nc2n[nH]c3ncc(F)cc23)nc(C2CCCC2)n1 [Compound I-9] |  | 1.4 | 0.002 | 0.048 |  | 
Cc1cc(Nc2n[nH]c3ncc(F)cc23)nc(C2CCCCC2)n1 [Compound I-10] |  | 0.4 | 0.0005 | 0.006 |  | 
[Li] [lithium] |  |  |  |  | > 50 | 
IGF-1: insulin growth factor-1, a known GSK-3 inhibitor |  |  |  |  |  | reduced infarct size

Now from value to compound, other results behind:

Ki (GSK-3β (AA 1-420)) [µM] | IC50 [1] [µM] | IC50 (GSK3α TYR 279) [µM] | IC50 (GSK3β TYR 216) [µM] | Compound | decrease in amyloid-β peptide tissue levels (amyloid-β peptides) [%] | infarct size in rat brains [2]
< 0.025 |  |  |  | Cc1cc(Nc2n[nH]c3ccc(F)cc23)nc(C2CCCC2)n1 [Compound I-14] |  | 
0.025 to 0.5 | 4.83 | 0.03 | 0.2 | Cc1cc(Nc2n[nH]c3ccc(F)cc23)nc(C2CCOCC2)n1 [Compound I-15] |  | 
 | 0.11 | 0.003 | 0.03 | Cc1cc(Nc2n[nH]c3ncc(F)cc23)nc(C2CCOCC2)n1 [Compound I-17] |  | 
 | 2.4 | 0.001 | 0.3 | Cc1cc(Nc2n[nH]c3ncc(F)cc23)nc([C@H]2CCCC[C@@H]2C)n1 [Compound I-18] |  | 
0.025 to 0.5 |  |  |  | Cc1cc(Nc2n[nH]c3ncc(F)cc23)nc(C2CC2)n1 [Compound I-20] |  | 
 | 1 | 0.003 | 0.02 | CC(C)(O)c1cc(Nc2n[nH]c3ncc(F)cc23)nc(C2CCCCC2)n1 [Compound I-21] |  | 
 | 1.1 | 0.002 | 0.025 | Cc1cc(Nc2n[nH]c3ccc(F)cc23)nc(C2CCCCC2)n1 [Compound I-23] |  | 
